For 28 molecules, Ki results are on record in BindingDB's records for aid1799744 (Csar, 2012).

Structures are written as SMILES.

The target of the test is Mitogen-activated protein kinase 1 (Homo sapiens, UniProt P28482). Briefly: Assay 1.
Chain of Mitogen-activated protein kinase 1 (P28482 whole entry): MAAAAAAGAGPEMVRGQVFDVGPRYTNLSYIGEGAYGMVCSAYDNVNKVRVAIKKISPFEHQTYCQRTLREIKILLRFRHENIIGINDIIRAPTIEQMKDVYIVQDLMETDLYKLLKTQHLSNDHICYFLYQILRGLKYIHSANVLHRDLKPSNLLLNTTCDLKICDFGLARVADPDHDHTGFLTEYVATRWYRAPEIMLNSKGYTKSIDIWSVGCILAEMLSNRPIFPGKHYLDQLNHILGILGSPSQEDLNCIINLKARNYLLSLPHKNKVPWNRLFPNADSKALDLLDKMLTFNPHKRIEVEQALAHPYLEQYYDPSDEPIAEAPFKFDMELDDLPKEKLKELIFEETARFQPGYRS
The term Ki denotes a measure of affinity in units of concentration, obtained from inhibition or displacement. In the case of `Cc1cnc(Nc2ccccn2)nc1-c1c[nH]c(C(=O)N[C@H](CO)c2ccccc2)c1` [erk000517], the Ki came to 0.4 nM.
Turning to `O=C(N[C@H](CO)c1ccccc1)c1cc(-c2n[nH]cc2-c2cccc(C(F)(F)F)c2)c[nH]1` [erk000184], the Ki turned out to be 83 nM.
With `Cc1cnc(N[C@@H](C)C(C)C)nc1-c1c[nH]c(C(=O)N[C@H](CO)c2cccc(Cl)c2)c1` [erk000605], the affinity, expressed as Ki, was 6 nM.
As to `CCNc1ncc(CC)c(-c2c[nH]c(C(=O)N[C@H](CO)c3ccccc3)c2)n1` [erk000060], affinity was put at a Ki of 120 nM.
Turning to `CCNc1ncc(C)c(-c2c[nH]c(C(=O)N[C@@H](CO)c3ccccc3)c2)n1` [erk000048], the Ki was found to be 12900 nM.
Next, `COc1cccc(CNC(=O)c2cc(-c3nc(N)ncc3C)c[nH]2)c1` [erk000630]: 813 nM.
`Cc1cnc(NCC(F)(F)F)nc1-c1c[nH]c(C(=O)N[C@H](CO)c2ccccc2)c1` [erk000444]: the affinity, expressed as Ki, was 5 nM.
On to `COc1cccc(Nc2ncc(C)c(-c3c[nH]c(C(=O)N[C@H](CO)c4ccccc4)c3)n2)c1OC` [erk000616], for which affinity was put at a Ki of 2 nM.
For the molecule `O=c1[nH][nH]c2cc(Nc3ncc(Nc4ccccc4)c(Nc4cc(C5CC5)[nH]n4)n3)ccc12` [erk000633], the affinity corresponds to a Ki of 15 nM.
`Cc1cnc(N)nc1-c1c[nH]c(C(=O)NCc2ccc(F)c(F)c2)c1` [erk000286] gave a Ki of 48 nM.
For `Cc1cnc(Nc2ccc3ncsc3c2)nc1-c1c[nH]c(C(=O)N[C@H](CO)c2cccc(Cl)c2)c1` [erk000665], the Ki amounted to 71 nM.
In turn, `CC[C@@H](COC)Nc1ncc(C)c(-c2c[nH]c(C(=O)N[C@H](CO)c3ccccc3)c2)n1` [erk000549] showed a Ki of 27 nM.
As for `Cc1cccc([C@@H](CO)NC(=O)c2cc(-c3nc(Nc4cccc(F)c4C)ncc3C)c[nH]2)c1` [erk000601], the inhibition constant (Ki) worked out at 8 nM.
As to `Cc1cnc(NCCN2CCOCC2)nc1-c1c[nH]c(C(=O)N[C@H](CO)c2ccccc2)c1` [erk000519], the Ki amounted to 120 nM.
For the molecule `Nc1ncc(-c2cc(Cl)cc(Cl)c2)c(-c2c[nH]c(C(=O)N[C@H](CO)c3ccccc3)c2)n1` [erk000031], the Ki was determined as 229 nM.
Molecule `Cc1cnc(Nc2c(C)cccc2Cl)nc1-c1c[nH]c(C(=O)N[C@H](CO)c2ccccc2)c1` [erk000575] registered a Ki of 110 nM.
In turn, `Cc1cnc(NC2CCNCC2)nc1-c1c[nH]c(C(=O)N[C@H](CO)c2cccc(Cl)c2)c1` [erk000623] showed an inhibition constant (Ki) of 15 nM.
Under `CN(Cc1ccccc1)C(=O)c1cc(-c2ccnc(Nc3ccccc3)n2)c[nH]1` [erk000059] stands 302 nM.
`Cc1cnc(N)nc1-c1c[nH]c(C(=O)NCc2ccc(Cl)cc2)c1` [erk000302] registered an inhibition constant (Ki) of 617 nM.
Under `Cc1cnc(N[C@@H]2C[C@@H]2C)nc1-c1c[nH]c(C(=O)N[C@H](CO)c2ccccc2)c1` [erk000510] stands 0.5 nM.
`CC[C@@H](COC(=O)OC(C)C)Nc1ncc(C)c(-c2c[nH]c(C(=O)N[C@H](CO)c3cccc(Cl)c3)c2)n1` [erk000684] had a Ki of 158 nM.
Molecule `Cc1cnc(NCC(C)C)nc1-c1c[nH]c(C(=O)N[C@H](CO)c2cccc(Cl)c2)c1` [erk000525] gave a Ki of 3 nM.
Take `Cc1cnc(Nc2cc(Cl)cc(Cl)c2)nc1-c1c[nH]c(C(=O)N[C@H](CO)c2ccccc2)c1` [erk000559]: the Ki was 3 nM.
Next, `Cc1cnc(NC(CO)CO)nc1-c1c[nH]c(C(=O)N[C@H](CO)c2ccccc2)c1` [erk000509]: 5 nM; `Cc1cnc(N[C@@H](CO)CC(F)(F)F)nc1-c1c[nH]c(C(=O)N[C@H](CO)c2cccc(Cl)c2)c1` [erk000675]: 8 nM.
Molecule `CCNc1ncc(C)c(-c2c[nH]c(C(=O)NCc3cccc(F)c3)c2)n1` [erk000474] showed a Ki of 83 nM.
`CCNc1ncc(C)c(-c2c[nH]c(C(=O)N3CCc4ccccc4C3)c2)n1` [erk000058] had an inhibition constant (Ki) of 1590 nM.
Turning to `CNc1ncc(C)c(-c2c[nH]c(C(=O)NCc3ccccc3)c2)n1` [erk000045], affinity was put at a Ki of 776 nM.
